For 9 molecules, GI50 and TGI results are on record in PubChem BioAssay (NCI).

Test systems include HL-60(TB) leukemia; ACHN renal; SK-MEL-2 melanoma; K-562 leukemia; SW-620 colon; U251 CNS; HCT-116 colon; HT29 colon; HOP-92 NSCLC; RPMI-8226 leukemia.
Assay in all cases: NCI tumour cell line growth inhibition, 48 h

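Tested at 5 concentrations; 48 h exposure; 96-well plates; endpoints linearly interpolated, else capped at highest concentration. Here, GI50 denotes the concentration required for 50% inhibition of growth. TGI: concentration producing complete growth inhibition.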

Take `COc1cc(-c2nc(Nc3nc4ccccc4[nH]3)nc(N)c2C#N)cc(OC)c1OC`: the GI50 is 0.991 µM in the test on HL-60(TB) leukemia; 14.5 µM in the test on ACHN renal; 2.69 µM in the test with SK-MEL-2 melanoma; 8.45 µM with K-562 leukemia; 1.85 µM with SW-620 colon; 10.8 µM with U251 CNS. Also, the GI50 in the test on HCT-116 colon is 4.52 µM; with HT29 colon, 0.877 µM; in the test with HOP-92 NSCLC, 0.341 µM; in the test on RPMI-8226 leukemia, 12.5 µM. Further, the TGI with HL-60(TB) leukemia was more than 100 µM; with ACHN renal it was more than 100 µM; with SK-MEL-2 melanoma, 34 µM; with K-562 leukemia, more than 100 µM; in the test with SW-620 colon, 26.1 µM; in the test with U251 CNS it was 72.4 µM. Moreover, the TGI in the test with HCT-116 colon was 25.8 µM; with HT29 colon, 24.1 µM; in the test with HOP-92 NSCLC, 31.8 µM; with RPMI-8226 leukemia it was more than 100 µM.
As to `CC1=CC(=NC(=O)CBr)C=C/C1=N\S(=O)(=O)c1ccccc1`, the GI50 in the test with HL-60(TB) leukemia is 2.78 µM; in the test with ACHN renal, 2.77 µM; with SK-MEL-2 melanoma, 4.04 µM; with K-562 leukemia, 2.54 µM; in the test with SW-620 colon, 3.03 µM; in the test on U251 CNS it was 3.37 µM. Moreover, the GI50 is 2.05 µM with HCT-116 colon, 2.58 µM in the test on HT29 colon, 1.8 µM with HOP-92 NSCLC and 2.9 µM in the test on RPMI-8226 leukemia. In addition, the TGI in the test on HL-60(TB) leukemia worked out at 7.94 µM; in the test on ACHN renal, 8.98 µM; in the test on SK-MEL-2 melanoma, 16 µM; in the test on K-562 leukemia, 6.44 µM; in the test on SW-620 colon, 10.1 µM; in the test on U251 CNS, 12.2 µM. In addition, the TGI in the test on HCT-116 colon was 4.97 µM; in the test with HT29 colon, 6.7 µM; in the test on HOP-92 NSCLC it was 6.77 µM; with RPMI-8226 leukemia, 9.35 µM.
With `Cn1cncc1[C@@](N)(c1ccc(Cl)cc1)c1ccc2c(c1)c(-c1cccc(Cl)c1)cc(=O)n2C`, the GI50 is 1.29 µM with HL-60(TB) leukemia; 3.05 µM in the test with ACHN renal; 1.39 µM with SK-MEL-2 melanoma; 0.669 µM in the test on K-562 leukemia; 1.82 µM with SW-620 colon; 1.4 µM in the test on U251 CNS. Also, the GI50 in the test with HCT-116 colon is 1.48 µM; with HT29 colon, 1.27 µM; in the test on HOP-92 NSCLC, 0.174 µM; in the test with RPMI-8226 leukemia it was 1.58 µM. In addition, the TGI amounted to 4.62 µM in the test on HL-60(TB) leukemia; 14.9 µM in the test on ACHN renal; 4.99 µM in the test on SK-MEL-2 melanoma; 6.16 µM in the test with K-562 leukemia; 12.7 µM in the test with SW-620 colon; 7.49 µM with U251 CNS. For the same molecule, the TGI in the test with HCT-116 colon was determined as 7.57 µM; in the test with HT29 colon, 6.24 µM; with HOP-92 NSCLC it was 2.69 µM; in the test on RPMI-8226 leukemia it was 9.79 µM.
Turning to `COc1cc(/C=C2/C(=O)N(C(=O)OC(C)C)C(Cc3cc(OC)c(OC)c(C)c3OC)C(=O)N2Cc2ccccc2)c(OC)c(C)c1OC` (stereo not given), the TGI in the test with HL-60(TB) leukemia, in the test on ACHN renal, in the test on SK-MEL-2 melanoma, in the test with K-562 leukemia, with SW-620 colon and in the test on U251 CNS was more than 100 µM throughout. The TGI in the test on HCT-116 colon, in the test on HT29 colon, with HOP-92 NSCLC and in the test with RPMI-8226 leukemia was more than 100 µM each time.
As for `COc1ccc(C(=O)OCC2OC(n3cnc4c(=S)nc[nH]c43)C(OC(=O)c3ccc(OC)cc3)C2OC(=O)c2ccc(OC)cc2)cc1` (stereo not given), the TGI in the test on HL-60(TB) leukemia, with ACHN renal, in the test with SK-MEL-2 melanoma, with K-562 leukemia, in the test with SW-620 colon and with U251 CNS was more than 100 µM throughout. For the same molecule, the TGI in the test on HCT-116 colon, with HT29 colon, with HOP-92 NSCLC and in the test on RPMI-8226 leukemia was more than 100 µM each time.
As to `Cn1cc(C2=C(c3cccc4ccccc34)C(=O)NC2=O)c2ccccc21`, the GI50 in the test on HL-60(TB) leukemia was 10.4 µM; with ACHN renal, 7.48 µM; in the test with SK-MEL-2 melanoma, 7.33 µM; in the test with K-562 leukemia it was 10.3 µM; in the test with SW-620 colon it was 9.45 µM; in the test with U251 CNS, 7.44 µM. For the same molecule, the GI50 with HCT-116 colon was 5.92 µM; with HT29 colon it was 7.45 µM; in the test with HOP-92 NSCLC, 8.46 µM; in the test with RPMI-8226 leukemia, 8.18 µM. Besides, the TGI in the test on HL-60(TB) leukemia is more than 25 µM; in the test with ACHN renal it was more than 25 µM; in the test with SK-MEL-2 melanoma, 18.6 µM; in the test on K-562 leukemia, more than 25 µM; in the test with SW-620 colon, more than 25 µM; in the test on U251 CNS, more than 25 µM. Also, the TGI is more than 16.7 µM in the test on HCT-116 colon, more than 25 µM in the test on HT29 colon, 24.3 µM with HOP-92 NSCLC and more than 19.9 µM in the test with RPMI-8226 leukemia.
Regarding `CCC[CH2][Sn]1([CH2]CCC)[O]C(=O)c2cc(I)cc(I)c2[O]1`, the GI50 in the test on HL-60(TB) leukemia was 0.4 µM; in the test on ACHN renal, 1.35 µM; in the test on SK-MEL-2 melanoma, 0.491 µM; in the test on K-562 leukemia, 0.284 µM; in the test on SW-620 colon, 0.367 µM; in the test with U251 CNS, 0.882 µM. Moreover, the GI50 is 1.42 µM in the test with HCT-116 colon, 2.03 µM in the test with HT29 colon, 1.4 µM in the test on HOP-92 NSCLC and 0.238 µM in the test with RPMI-8226 leukemia. For the same molecule, the TGI in the test with HL-60(TB) leukemia was 2.22 µM; in the test on ACHN renal it was 2.63 µM; in the test with SK-MEL-2 melanoma it was 1.94 µM; with K-562 leukemia, 1.25 µM; in the test with SW-620 colon, 1.57 µM; with U251 CNS it was 2.1 µM. Also, the TGI is 2.72 µM in the test on HCT-116 colon, 4.21 µM in the test with HT29 colon, 2.93 µM in the test with HOP-92 NSCLC and 1.16 µM in the test with RPMI-8226 leukemia.
`COc1cccc(C2c3cc4c(cc3OC(C)(O)C2C)OCO4)c1O` (stereo not given): the TGI in the test with HL-60(TB) leukemia was 28 µM; in the test on ACHN renal, 79.1 µM; in the test on SK-MEL-2 melanoma, 65.3 µM; in the test with K-562 leukemia it was 36.9 µM; in the test on SW-620 colon, more than 100 µM; in the test on U251 CNS it was 21.1 µM. The TGI in the test with HCT-116 colon is 19.7 µM; with HT29 colon, 17.4 µM; in the test on HOP-92 NSCLC it was 47.3 µM; with RPMI-8226 leukemia, more than 100 µM.
With `O=C(Nc1ccccc1O)c1cccc(NC2=C(Cl)C(=O)N(Cc3ccccc3)C2=O)c1`, the GI50 was 1.5 µM in the test on HL-60(TB) leukemia; 4.73 µM in the test with ACHN renal; 6.07 µM in the test on SK-MEL-2 melanoma; 2.15 µM with K-562 leukemia; 2.12 µM in the test with SW-620 colon; 3.38 µM in the test with U251 CNS. In addition, the GI50 is 2.97 µM with HCT-116 colon, 7.05 µM with HT29 colon, 10.5 µM in the test on HOP-92 NSCLC and 0.778 µM in the test on RPMI-8226 leukemia. For the same molecule, the TGI was 8.5 µM in the test on HL-60(TB) leukemia; 15.7 µM in the test with ACHN renal; 24.1 µM with SK-MEL-2 melanoma; 9.06 µM in the test on K-562 leukemia; 5.06 µM in the test on SW-620 colon; 13.9 µM in the test on U251 CNS. Besides, the TGI in the test with HCT-116 colon was 12.1 µM; in the test on HT29 colon, more than 100 µM; in the test on HOP-92 NSCLC, 24.3 µM; in the test on RPMI-8226 leukemia, 3.4 µM.
